Test results reported in patent publication US20060204502A1 (priority 2004, published 2006).
Read-outs that look alike come from different tables or passages of the source.

Biological target: P-gp (Homo sapiens, UniProt P08183)
Assay type: cell-based
Conditions: 10 μM; for P-gp mediated Rh123 efflux (FRES vs FMAX): 3 hours efflux
Procedure: Rhodamine 123 Efflux Assay: 5×10^5 cells from each subline were loaded with 50 ng/ml of rhodamine 123 for 30 minutes at 37 C in medium. The cells were washed and resuspended in dye-staining agent free medium for 3 hours at 37 C. to allow rhodamine 123 efflux. The cells were then washed twice and the fluorescence of intracellular rhodamine 123 were analysed with Flow cytometer (residual fluorescence FRES). The fluorescence was compared with loaded cells maintained at 4 C. to prevent drug export (maximal fluorescence FMAX). […] Cells from each subline that were not being exposed to rhodamine 123 were used as negative controls.
Rhodamine 123 (Rh123) retention, a P-gp functional assay, was studied in all cell lines. This assay was performed by incubating cells with Rh123 and determining Rh123 accumulation by measuring its fluorescence. The maximum load of Rh123 (FMAX) was quantified at the end of treatment harvesting the cells and storing them at 4° C. to prevent any active Rh123 efflux. The P-gp drug efflux was allowed incubating Rh123-loaded cells in fresh new medium Rh123-free for 3 hours at 37° C. After this incubation, residual fluorescence (FRES) was measured and compared to FMAX.

P-gp, sequence (P08183 whole entry): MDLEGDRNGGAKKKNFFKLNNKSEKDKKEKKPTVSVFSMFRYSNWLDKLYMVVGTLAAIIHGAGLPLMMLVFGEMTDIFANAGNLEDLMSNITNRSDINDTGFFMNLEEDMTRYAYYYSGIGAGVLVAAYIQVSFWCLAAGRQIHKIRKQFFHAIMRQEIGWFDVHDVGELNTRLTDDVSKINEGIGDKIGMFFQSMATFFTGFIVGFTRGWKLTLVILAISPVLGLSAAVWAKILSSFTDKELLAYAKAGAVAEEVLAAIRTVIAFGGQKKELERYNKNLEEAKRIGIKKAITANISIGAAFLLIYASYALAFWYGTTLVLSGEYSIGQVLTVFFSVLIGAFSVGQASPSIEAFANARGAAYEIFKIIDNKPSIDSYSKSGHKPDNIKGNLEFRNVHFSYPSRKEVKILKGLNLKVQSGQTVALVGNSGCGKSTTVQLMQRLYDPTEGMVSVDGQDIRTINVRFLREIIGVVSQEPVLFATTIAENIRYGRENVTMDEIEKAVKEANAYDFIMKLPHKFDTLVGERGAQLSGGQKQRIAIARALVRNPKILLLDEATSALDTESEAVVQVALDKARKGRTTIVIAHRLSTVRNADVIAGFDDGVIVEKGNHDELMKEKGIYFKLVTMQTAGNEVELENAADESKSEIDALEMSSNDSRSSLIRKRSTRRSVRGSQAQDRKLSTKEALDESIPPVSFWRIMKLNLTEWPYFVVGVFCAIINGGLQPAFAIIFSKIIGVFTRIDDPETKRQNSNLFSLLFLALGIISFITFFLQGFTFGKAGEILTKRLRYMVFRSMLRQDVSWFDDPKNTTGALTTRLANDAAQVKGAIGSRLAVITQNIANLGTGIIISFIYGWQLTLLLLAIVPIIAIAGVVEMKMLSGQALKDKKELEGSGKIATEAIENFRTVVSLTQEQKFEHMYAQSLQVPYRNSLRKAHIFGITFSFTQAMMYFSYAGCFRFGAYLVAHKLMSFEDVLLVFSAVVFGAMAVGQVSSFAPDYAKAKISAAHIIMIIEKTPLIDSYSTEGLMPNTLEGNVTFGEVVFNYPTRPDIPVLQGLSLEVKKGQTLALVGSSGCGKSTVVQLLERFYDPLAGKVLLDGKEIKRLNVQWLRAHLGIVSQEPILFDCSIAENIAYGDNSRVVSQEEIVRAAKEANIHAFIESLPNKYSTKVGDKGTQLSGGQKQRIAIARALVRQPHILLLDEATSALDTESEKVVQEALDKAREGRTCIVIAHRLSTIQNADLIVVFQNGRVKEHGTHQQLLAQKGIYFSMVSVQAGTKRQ

Q: With `CCCn1cc2c(nc(NC(=O)Nc3ccc(OC)cc3)n3nc(-c4ccco4)nc23)n1` [MRE3008F20, 5-[[(4-Methoxyphenyl)amino]carbonyl]amino-8-propyl-2-(2-furyl)-pyrazolo[4,3-e]1,2,4-triazolo[1,5-c]pyrimidine] as the compound, how does the “P-gp mediated Rh123 efflux (FRES vs FMAX)” value (A375 cells) read?
A: The value was “completely blockade of P-gp mediated Rh123 transport”.

Q: What about the “% of Rh123 Negative Cells (cells expressing P-gp activity)” value (HeL023 cells) of the same compound?
A: Its value is 0.5 ± 0.3%.

Q: What about the “P-gp mediated Rh123 efflux (FRES vs FMAX)” value (HeL023 cells) of the same compound?
A: The value was “near total P-gp inhibition”.
